The values below come from patent EP0203488A2, “7-Azolyl-1-cyclopropyl-1,4-dihydro-4-oxo-3-quinoline carboxylic acids and 1,8-naphthyridine carboxylic acids, process for their preparation and bactericidal agents containing them” (BAYER AG, priority 1985, dated 1986).

Holding throughout (assay): Agar dilution test (Isosensitest medium), MIC
What all share (format): cell-based
(Agar dilution tests growth on a series of plates holding different concentrations.)

One test concerns E.coli Neum. To be noted: Escherichia coli, Agardilutionstest / Isosensitestmedium, read-out: MHK-Werte. An excerpt: (§1) In der nachstehenden Tabelle sind die MHK-Werte einiger der erfindungsgemäßen Verbindungen im Vergleich zu Ciprofloxacin angegeben.
The next test deals with Staph. aur. 1756. The note with it: Agardilutionstest / Isosensitestmedium, read-out: MHK-Werte.
Excerpt: as §1

The next test relates to Klebsiella pneum. 63. To be noted: Agardilutionstest / Isosensitestmedium, read-out: MHK-Werte.
Excerpt: as §1

In the next test the test system is Pseudom.aerug.Ellsw. The note with it: Agardilutionstest / Isosensitestmedium, read-out: MHK-Werte.
Excerpt: as §1

A further test concerns Staph. aur. 133. The note with it: Agardilutionstest / Isosensitestmedium, read-out: MHK-Werte.
Excerpt: as §1

A further test relates to E.coli T 7. The note with it: Escherichia coli, T7, Agardilutionstest / Isosensitestmedium, read-out: MHK-Werte.
Excerpt: as §1

Another test concerns Klebsiella pneum. 8085. To be noted: Agardilutionstest / Isosensitestmedium, read-out: MHK-Werte.
Excerpt: as §1

A further test relates to Staph. aur. FK 422. To be noted: Agardilutionstest / Isosensitestmedium, read-out: MHK-Werte.
Excerpt: as §1

The next test concerns Streptococcus faec.27101. To be noted: Agardilutionstest / Isosensitestmedium, read-out: MHK-Werte.
Excerpt: as §1

In another test the test system is Proteus vulg. 1017. To be noted: Agardilutionstest / Isosensitestmedium, read-out: MHK-Werte.
Excerpt: as §1

In brackets after ≈: the same amount, converted by molar mass.

Consider `O=C(O)c1cn(C2CC2)c2cc(-n3cccc3)c(F)cc2c1=O` [Beispiel 1, 1-Cyclopropyl-6-fluor-1,4-dihydro-4-oxo-7-(1-pyrrolyl)-3-chino-lincarbonsäure], for which the MIC in the test with E.coli Neum. was 0.06 µg/mL (≈ 0.192 µM); in the test with Staph. aur. 1756 it was 0.03 µg/mL (≈ 0.0961 µM); with Klebsiella pneum. 63, 0.125 µg/mL (≈ 0.4 µM); in the test on Pseudom.aerug.Ellsw. it was 0.5 µg/mL (≈ 1.6 µM); in the test on Staph. aur. 133, 0.03 µg/mL (≈ 0.0961 µM); in the test on E.coli T 7, 0.06 µg/mL (≈ 0.192 µM). Also, the MIC in the test with Klebsiella pneum. 8085 is 0.06 µg/mL (≈ 0.192 µM); in the test with Staph. aur. FK 422, 0.03 µg/mL (≈ 0.0961 µM); in the test with Streptococcus faec.27101, 0.25 µg/mL (≈ 0.801 µM); in the test with Proteus vulg. 1017, 0.25 µg/mL (≈ 0.801 µM).

In the case of `O=C(O)c1cn(C2CC2)c2c(F)c(-n3cccc3)c(F)cc2c1=O` [Beispiel 2, 1-Cyclopropyl-6,8-difluor-1,4-dihydro-4-oxo-7-(1-pyrrolyl)-3-chinolincarbon-säure], the MIC is 0.25 µg/mL (≈ 0.757 µM) in the test on E.coli Neum.; 0.06 µg/mL (≈ 0.182 µM) with Staph. aur. 1756; 0.5 µg/mL (≈ 1.51 µM) with Klebsiella pneum. 63; 1 µg/mL (≈ 3.03 µM) in the test on Pseudom.aerug.Ellsw.; 0.06 µg/mL (≈ 0.182 µM) in the test on Staph. aur. 133; 0.125 µg/mL (≈ 0.378 µM) in the test with E.coli T 7. Moreover, the MIC in the test on Klebsiella pneum. 8085 came to 0.125 µg/mL (≈ 0.378 µM); in the test on Staph. aur. FK 422, 0.06 µg/mL (≈ 0.182 µM); with Streptococcus faec.27101, 0.25 µg/mL (≈ 0.757 µM); in the test on Proteus vulg. 1017 it was 0.5 µg/mL (≈ 1.51 µM).

`O=C(O)c1cn(C2CC2)c2c(F)c(-n3ccnc3)c(F)cc2c1=O` [Beispiel 21, 1-Cyclopropyl-6,8-difluor-1,4-dihydro-7-(1-imidazolyl)-4-oxo-3-chinolincarbonsäure]: the MIC with E.coli Neum. was 0.03 µg/mL (≈ 0.0906 µM); with Staph. aur. 1756, 0.125 µg/mL (≈ 0.377 µM); with Klebsiella pneum. 63, 0.06 µg/mL (≈ 0.181 µM); in the test with Pseudom.aerug.Ellsw. it was 0.25 µg/mL (≈ 0.755 µM); with Staph. aur. 133, 0.125 µg/mL (≈ 0.377 µM); in the test on E.coli T 7, 0.03 µg/mL (≈ 0.0906 µM). Moreover, the MIC in the test on Klebsiella pneum. 8085 is 0.03 µg/mL (≈ 0.0906 µM); with Staph. aur. FK 422, 0.125 µg/mL (≈ 0.377 µM); with Streptococcus faec.27101, 0.5 µg/mL (≈ 1.51 µM); in the test on Proteus vulg. 1017 it was 0.125 µg/mL (≈ 0.377 µM).

In the case of `O=C(O)c1cn(C2CC2)c2c(Cl)c(-n3ccnc3)c(F)cc2c1=O` [Beispiel 20, 8-Chlor-1-cyclopropyl-6-fluor-1,4-dihydro-7-(1-imidazolyl)-4-oxo-3-chinolincarbonsäure], the MIC worked out at 0.03 µg/mL (≈ 0.0863 µM) in the test on E.coli Neum.; 0.03 µg/mL (≈ 0.0863 µM) in the test with Staph. aur. 1756; 0.25 µg/mL (≈ 0.719 µM) with Klebsiella pneum. 63; 0.5 µg/mL (≈ 1.44 µM) in the test on Pseudom.aerug.Ellsw.; 0.03 µg/mL (≈ 0.0863 µM) in the test on Staph. aur. 133; 0.03 µg/mL (≈ 0.0863 µM) in the test with E.coli T 7. Moreover, the MIC turned out to be 0.03 µg/mL (≈ 0.0863 µM) with Klebsiella pneum. 8085, 0.03 µg/mL (≈ 0.0863 µM) in the test on Staph. aur. FK 422, 0.125 µg/mL (≈ 0.359 µM) in the test on Streptococcus faec.27101 and 0.25 µg/mL (≈ 0.719 µM) with Proteus vulg. 1017.

For `CCn1cc(C(=O)O)c(=O)c2cc(F)c(-n3ccnc3)c(F)c21` [EP 115 049, 1-Ethyl-6,8-difluor-1,4-dihydro-7-(1-imidazolyl)-4-oxo-3-chinolincarbonsäure, reference compound], the MIC in the test with E.coli Neum. amounted to 0.125 µg/mL (≈ 0.392 µM); in the test with Staph. aur. 1756 it was 1 µg/mL (≈ 3.13 µM); in the test with Klebsiella pneum. 63, 0.5 µg/mL (≈ 1.57 µM); in the test with Pseudom.aerug.Ellsw., 1 µg/mL (≈ 3.13 µM); in the test on Staph. aur. 133, 1 µg/mL (≈ 3.13 µM); in the test with E.coli T 7 it was 0.125 µg/mL (≈ 0.392 µM). Moreover, the MIC in the test with Klebsiella pneum. 8085 amounted to 0.25 µg/mL (≈ 0.783 µM); in the test on Staph. aur. FK 422 it was 0.5 µg/mL (≈ 1.57 µM); in the test on Streptococcus faec.27101 it was 2 µg/mL (≈ 6.26 µM); with Proteus vulg. 1017 it was 0.5 µg/mL (≈ 1.57 µM).
